The source of these data is patent US20230310428A1, “EGFR INHIBITOR AND PREPARATION METHOD AND USE THEREOF” (HONGYUN BIOTECH CO., LTD., priority 2020, published 2023).

Structures are written as SMILES.

What all share (experiment): Growth inhibitory activity of compounds on BaF3 cell lines stably transfected with kinase (MTS, 48 h)
What all share (assay type): cell-based

Assay [1] deals with T1, various mutants of kinase EGFR (BaF3 cell lines stably transfected with kinase) (Homo sapiens, UniProt P00533, T790M, form not given).
T1 construct: other: BaF3 cells stably transfected with EGFR Δ19Del/T790M; MTS, 48 h; other: BaF3 cell line stably transfected with EGFR Δ19Del/T790M; MTS, 48
T1 sequence (P00533 with tags, fused parts or gaps DEL746-750/T790M, form open): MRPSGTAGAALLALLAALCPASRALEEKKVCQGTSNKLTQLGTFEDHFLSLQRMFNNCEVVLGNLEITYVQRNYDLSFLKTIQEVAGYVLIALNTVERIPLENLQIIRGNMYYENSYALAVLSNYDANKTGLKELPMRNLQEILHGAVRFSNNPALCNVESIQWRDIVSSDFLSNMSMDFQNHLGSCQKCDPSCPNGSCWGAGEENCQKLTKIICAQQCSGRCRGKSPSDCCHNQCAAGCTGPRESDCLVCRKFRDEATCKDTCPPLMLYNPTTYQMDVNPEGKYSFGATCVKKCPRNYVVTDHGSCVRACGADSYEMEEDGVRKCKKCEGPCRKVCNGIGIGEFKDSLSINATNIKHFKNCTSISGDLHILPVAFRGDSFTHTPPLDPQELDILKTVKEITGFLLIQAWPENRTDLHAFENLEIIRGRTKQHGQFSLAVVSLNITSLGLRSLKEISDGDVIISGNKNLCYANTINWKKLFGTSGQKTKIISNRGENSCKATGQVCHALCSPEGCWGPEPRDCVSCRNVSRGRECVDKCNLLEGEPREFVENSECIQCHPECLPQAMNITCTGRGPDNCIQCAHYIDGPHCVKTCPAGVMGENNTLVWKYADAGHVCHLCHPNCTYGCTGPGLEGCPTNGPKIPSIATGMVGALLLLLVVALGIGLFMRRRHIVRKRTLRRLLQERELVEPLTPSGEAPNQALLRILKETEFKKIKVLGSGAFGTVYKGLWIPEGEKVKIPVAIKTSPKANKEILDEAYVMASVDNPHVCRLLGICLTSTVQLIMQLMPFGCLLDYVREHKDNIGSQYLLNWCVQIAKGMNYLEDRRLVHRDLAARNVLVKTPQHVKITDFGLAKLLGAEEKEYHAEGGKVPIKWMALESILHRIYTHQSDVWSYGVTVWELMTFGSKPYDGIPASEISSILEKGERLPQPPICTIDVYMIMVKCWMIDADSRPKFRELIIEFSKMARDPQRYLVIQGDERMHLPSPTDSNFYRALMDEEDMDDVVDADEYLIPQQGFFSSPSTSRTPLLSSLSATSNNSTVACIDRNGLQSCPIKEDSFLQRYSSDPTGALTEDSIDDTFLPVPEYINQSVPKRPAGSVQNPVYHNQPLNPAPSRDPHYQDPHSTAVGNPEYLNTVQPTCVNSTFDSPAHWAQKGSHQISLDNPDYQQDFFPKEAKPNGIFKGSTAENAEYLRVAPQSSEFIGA
The conditions noted are these: BaF3 cells stably transfected with EGFR Δ19Del/T790M, read-out: IC50, growth inhibition, Δ19Del/T790M. As to the method: (§1) The activity of compounds against various mutants of kinase EGFR was evaluated by their effect of inhibiting growth of BaF3 cell lines stably transfected with kinase. The specific test method was given as follows:
(§2) 1) Culture medium: DMEM (Dulbecco’s modified eagle medium) or RPMI 1640 (containing 10% fetal bovine serum, 100 µg/mL ampicillin, 100 µg/mL streptomycin).
(§3) 2) Reagent: MTS reaction solution (containing 2 mg/mL of MTS [3-(4,5-dimethylthiazol-2-yl)-5-(3-carboxymethoxyphenyl)-2-(4-sulfophenyl)-2H-tetrazoliu m, inner Salt]; 100 µg/mL of PES ([…])).
(§4) 3) Compound test: cells were incubated into a 96-well culture plate, the volume of cytosol was 90 µL, and then 10 µL of the compound at each gradient concentration was added. That is, the highest concentration was 10 µM, which was diluted stepwise by ⅓, and 8 concentration points were set in total; 0.1% DMSO (dimethyl sulfoxide) was contained in the system. The cell plate with uniformly mixed compound was cultured in a cell culture incubator (37° C.; 5% CO2) for 48 h, then 20 µL of MTS reaction solution was added, uniformly mixed and incubated in the cell culture incubator (37° C.; 5% CO2) for 1-4 h. OD values at 490 nm were measured by a microplate reader (VARIOSKAN FLASH, Thermo). Two parallels were set in each group of experiments, with 0.1% (a final concentration) DMSO as a negative control, and a culture medium without cells and compounds as a blank control. The cell growth inhibition rate was calculated by the following formula: […]
(§5) 4) IC50 calculation: The semi-inhibitory concentration of the compounds acting on cells was calculated using GradPad Prism 5 software according to the measured cell growth inhibition rate.

Assay [2] has as its target T2, various mutants of kinase EGFR (BaF3 cell lines stably transfected with kinase) (Homo sapiens, UniProt P00533, L858R).
T2 construct: expressed in transfected cells; host or cells: BaF3
Particulars: BaF3 cells stably transfected with EGFR L858R, read-out: IC50, growth inhibition, L858R. On the procedure: as §1, §2, §3, §4, §5

Assay [3] concerns the target T3, various mutants of kinase EGFR (BaF3 cell lines stably transfected with kinase) (Homo sapiens, UniProt P00533, C797S/L858R/T790M).
T3 construct: expressed in transfected cells; host or cells: BaF3
Particulars: BaF3 cells stably transfected with EGFR L858R/T790M/C797S, read-out: IC50, growth inhibition, L858R/T790M/C797S. On the procedure: as §1, §2, §3, §4, §5

The target of assay [4] is T4, various mutants of kinase EGFR (BaF3 cell lines stably transfected with kinase) (Homo sapiens, UniProt P00533, T790M/C797S, form not given).
T4 construct: other: BaF3 cells stably transfected with EGFR Δ19Del/T790M/C797S; MTS, 48; other: BaF3 cell line stably transfected with EGFR Δ19Del/T790M/C7
T4 sequence (P00533 with tags, fused parts or gaps DEL746-750/T790M/C797S, form open): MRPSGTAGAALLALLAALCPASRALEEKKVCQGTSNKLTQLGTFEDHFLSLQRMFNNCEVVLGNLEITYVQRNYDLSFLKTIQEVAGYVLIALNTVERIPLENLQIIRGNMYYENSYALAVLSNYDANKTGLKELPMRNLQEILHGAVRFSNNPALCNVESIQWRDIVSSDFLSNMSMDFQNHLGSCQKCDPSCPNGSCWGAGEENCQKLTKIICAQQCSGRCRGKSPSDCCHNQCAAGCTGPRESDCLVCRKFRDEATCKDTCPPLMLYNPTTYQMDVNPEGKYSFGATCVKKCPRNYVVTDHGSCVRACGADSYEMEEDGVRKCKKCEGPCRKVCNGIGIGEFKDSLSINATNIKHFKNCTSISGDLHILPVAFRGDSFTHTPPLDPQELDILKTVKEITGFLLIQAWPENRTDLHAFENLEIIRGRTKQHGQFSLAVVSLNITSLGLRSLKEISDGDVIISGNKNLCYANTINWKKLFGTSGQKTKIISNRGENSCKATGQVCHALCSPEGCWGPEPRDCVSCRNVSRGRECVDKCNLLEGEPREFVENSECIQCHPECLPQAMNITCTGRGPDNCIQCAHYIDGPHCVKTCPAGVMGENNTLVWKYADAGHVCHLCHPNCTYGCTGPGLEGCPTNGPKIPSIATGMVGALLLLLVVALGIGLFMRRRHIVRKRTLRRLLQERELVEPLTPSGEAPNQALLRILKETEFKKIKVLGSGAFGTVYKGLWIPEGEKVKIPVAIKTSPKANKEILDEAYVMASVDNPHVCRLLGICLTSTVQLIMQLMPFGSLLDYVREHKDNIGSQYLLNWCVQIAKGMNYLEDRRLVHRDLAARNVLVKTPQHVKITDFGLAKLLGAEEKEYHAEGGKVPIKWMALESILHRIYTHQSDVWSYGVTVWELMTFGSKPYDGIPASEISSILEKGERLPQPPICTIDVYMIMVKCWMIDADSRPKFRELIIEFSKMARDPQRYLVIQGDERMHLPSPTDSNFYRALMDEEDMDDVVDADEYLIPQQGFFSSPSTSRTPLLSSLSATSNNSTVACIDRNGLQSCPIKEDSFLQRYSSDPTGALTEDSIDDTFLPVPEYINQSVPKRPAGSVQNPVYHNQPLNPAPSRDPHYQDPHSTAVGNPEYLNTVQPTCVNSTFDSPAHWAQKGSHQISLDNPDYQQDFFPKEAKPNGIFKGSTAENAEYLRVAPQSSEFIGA
Particulars: BaF3 cells stably transfected with EGFR Δ19Del/T790M/C797S, read-out: IC50, growth inhibition, Δ19Del/T790M/C797S. As to the method:
as §1, §2, §3, §4, §5

Assay [5] concerns the target T5, various mutants of kinase EGFR (BaF3 cell lines stably transfected with kinase) (Homo sapiens, UniProt P00533).
T5 construct: other: BaF3 cells stably transfected with EGFR Δ19Del; MTS, 48 h; other: BaF3 cell line stably transfected with EGFR Δ19Del
Particulars: BaF3 cells stably transfected with EGFR Δ19Del, read-out: IC50, growth inhibition, Δ19Del. On the procedure:
as §1, §2, §3, §4, §5

The target of assay [6] is T6, various mutants of kinase EGFR (BaF3 cell lines stably transfected with kinase) (Homo sapiens, UniProt P00533, L858R/T790M).
T6 construct: expressed in transfected cells; host or cells: BaF3
T6 sequence (P00533 25-1210 T790M/L858R): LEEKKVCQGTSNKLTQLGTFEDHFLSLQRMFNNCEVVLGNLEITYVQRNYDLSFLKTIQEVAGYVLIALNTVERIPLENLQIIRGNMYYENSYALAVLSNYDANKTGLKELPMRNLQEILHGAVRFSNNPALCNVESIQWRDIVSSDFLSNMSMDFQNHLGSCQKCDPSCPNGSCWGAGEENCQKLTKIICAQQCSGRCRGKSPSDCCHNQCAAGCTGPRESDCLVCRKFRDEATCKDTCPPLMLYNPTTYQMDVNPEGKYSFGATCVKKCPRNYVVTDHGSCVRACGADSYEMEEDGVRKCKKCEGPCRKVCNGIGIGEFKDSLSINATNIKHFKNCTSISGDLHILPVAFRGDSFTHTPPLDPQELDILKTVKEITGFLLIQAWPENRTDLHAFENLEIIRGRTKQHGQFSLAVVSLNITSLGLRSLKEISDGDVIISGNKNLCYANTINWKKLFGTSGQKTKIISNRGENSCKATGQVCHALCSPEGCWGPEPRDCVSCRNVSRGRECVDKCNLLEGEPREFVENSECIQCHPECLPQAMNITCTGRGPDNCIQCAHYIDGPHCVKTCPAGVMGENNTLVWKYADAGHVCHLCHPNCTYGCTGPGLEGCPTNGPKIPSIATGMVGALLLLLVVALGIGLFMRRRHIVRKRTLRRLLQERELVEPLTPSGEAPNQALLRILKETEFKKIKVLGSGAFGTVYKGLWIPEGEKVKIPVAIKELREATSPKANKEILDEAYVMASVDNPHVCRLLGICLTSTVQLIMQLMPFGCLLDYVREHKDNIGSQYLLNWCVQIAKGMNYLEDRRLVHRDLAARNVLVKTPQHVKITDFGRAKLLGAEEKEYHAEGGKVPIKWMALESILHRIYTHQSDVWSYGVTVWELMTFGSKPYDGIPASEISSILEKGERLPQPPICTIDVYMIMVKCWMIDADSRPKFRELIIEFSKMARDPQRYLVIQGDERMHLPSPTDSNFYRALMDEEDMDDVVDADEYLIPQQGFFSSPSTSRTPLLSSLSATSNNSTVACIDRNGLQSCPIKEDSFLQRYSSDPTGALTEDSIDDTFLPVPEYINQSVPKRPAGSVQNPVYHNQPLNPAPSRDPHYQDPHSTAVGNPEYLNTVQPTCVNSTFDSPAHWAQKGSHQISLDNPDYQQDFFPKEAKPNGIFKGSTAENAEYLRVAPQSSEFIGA
The conditions noted are these: BaF3 cells stably transfected with EGFR L858R/T790M, read-out: IC50, growth inhibition, L858R/T790M. On the procedure: as §1, §2, §3, §4, §5

T5 sequence (P00533 with tags, fused parts or gaps DEL746-750): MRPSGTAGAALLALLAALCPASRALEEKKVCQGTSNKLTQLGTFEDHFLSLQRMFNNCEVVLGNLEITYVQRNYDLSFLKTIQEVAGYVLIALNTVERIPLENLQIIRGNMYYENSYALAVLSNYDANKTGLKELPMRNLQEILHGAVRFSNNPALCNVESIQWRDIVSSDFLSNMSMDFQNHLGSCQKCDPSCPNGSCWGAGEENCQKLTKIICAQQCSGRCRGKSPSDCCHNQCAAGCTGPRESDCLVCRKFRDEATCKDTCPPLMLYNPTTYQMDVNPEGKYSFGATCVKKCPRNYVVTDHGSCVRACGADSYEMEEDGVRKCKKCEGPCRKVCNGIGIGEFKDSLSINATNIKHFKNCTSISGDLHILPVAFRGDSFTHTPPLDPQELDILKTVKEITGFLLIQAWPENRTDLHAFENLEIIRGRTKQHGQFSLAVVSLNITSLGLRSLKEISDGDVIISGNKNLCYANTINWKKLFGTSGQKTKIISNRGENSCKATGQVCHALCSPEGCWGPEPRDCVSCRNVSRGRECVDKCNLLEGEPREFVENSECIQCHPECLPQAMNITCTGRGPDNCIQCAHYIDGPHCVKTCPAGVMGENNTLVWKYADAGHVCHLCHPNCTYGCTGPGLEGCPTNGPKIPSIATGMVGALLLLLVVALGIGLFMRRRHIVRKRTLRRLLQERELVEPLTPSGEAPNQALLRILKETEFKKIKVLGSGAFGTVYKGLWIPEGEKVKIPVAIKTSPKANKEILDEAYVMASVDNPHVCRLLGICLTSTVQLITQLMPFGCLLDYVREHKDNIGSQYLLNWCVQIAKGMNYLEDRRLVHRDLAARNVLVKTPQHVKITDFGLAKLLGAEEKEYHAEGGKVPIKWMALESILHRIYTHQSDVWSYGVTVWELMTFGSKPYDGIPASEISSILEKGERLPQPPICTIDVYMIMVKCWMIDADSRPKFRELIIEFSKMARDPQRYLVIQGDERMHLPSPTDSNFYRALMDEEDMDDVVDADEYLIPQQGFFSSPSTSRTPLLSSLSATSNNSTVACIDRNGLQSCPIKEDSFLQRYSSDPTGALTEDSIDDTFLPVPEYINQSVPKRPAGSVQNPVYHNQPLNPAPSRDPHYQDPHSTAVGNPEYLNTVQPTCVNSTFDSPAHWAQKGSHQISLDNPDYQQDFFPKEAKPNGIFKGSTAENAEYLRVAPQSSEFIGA

As for `CN1CCc2cc(OC(F)(F)F)c(Nc3ncc(Br)c(Nc4ccc5nccnc5c4N(C)S(C)(=O)=O)n3)cc2C1` [Compound I-90], the IC50 in assay [1] is 500 to 2500 nM; in assay [2], 500 to 2500 nM; in assay [3], 50 to 500 nM; in assay [4] it was 500 to 2500 nM; in assay [5], 50 to 500 nM; in assay [6], 500 to 2500 nM.

Take `Cc1cc2c(cc1Nc1ncc(Br)c(Nc3ccc4nccnc4c3N(C)S(C)(=O)=O)n1)CN(C)CC2` [Compound I-92]: the IC50 in assay [1] was 50 to 500 nM; in assay [2], 50 to 500 nM; in assay [3] it was at most 50 nM; in assay [4], 50 to 500 nM; in assay [5], 50 to 500 nM; in assay [6], 50 to 500 nM.

As for `CC1CN(C)CCc2ccc(Nc3ncc(Br)c(Nc4ccc5nccnc5c4N(C)S(C)(=O)=O)n3)cc21` (stereo not drawn) [Compound I-93], the IC50 in assay [1], in assay [2], in assay [3], in assay [4], in assay [5] and in assay [6] was at most 50 nM throughout.

Consider `CCN(c1c(Nc2nc(Nc3cc(C)c(N4CCC(N5CCN(C)CC5)CC4)cc3OC)ncc2Br)ccc2nccnc12)S(C)(=O)=O` [Compound I-94], for which the IC50 in assay [1], in assay [2], in assay [3], in assay [4], in assay [5] and in assay [6] was at most 50 nM throughout.

On to `CCc1cc(Nc2ncc(Br)c(Nc3ccc4nccnc4c3N(CC)S(C)(=O)=O)n2)c(OC)cc1N1CCC(N2CCN(C)CC2)CC1` [Compound I-95], for which the IC50 in assay [1], in assay [2], in assay [3], in assay [4], in assay [5] and in assay [6] was at most 50 nM in each case.

As to `CCc1cc(Nc2ncc(Br)c(Nc3ccc4nccnc4c3N(CC)S(C)(=O)=O)n2)c(OC(F)(F)F)cc1N1CCC(N2CCN(C)CC2)CC1` [Compound I-96], the IC50 is 50 to 500 nM in assay [1]; 50 to 500 nM in assay [2]; at most 50 nM in assay [3]; at most 50 nM in assay [4]; 50 to 500 nM in assay [5]; 50 to 500 nM in assay [6].

`CCc1cc(Nc2ncc(Br)c(Nc3ccc4nccnc4c3N(CC)S(C)(=O)=O)n2)c(OC)cc1N1CCC(N(C)C)CC1` [Compound I-97]: the IC50 in assay [1], in assay [2], in assay [3], in assay [4], in assay [5] and in assay [6] was at most 50 nM throughout.

Regarding `CCc1cc(Nc2ncc(Br)c(Nc3ccc4nccnc4c3N(CC)S(C)(=O)=O)n2)c(OC)cc1N1CCC(N(C)C)C1` (stereo not drawn) [Compound I-98], the IC50 was at most 50 nM in assay [1]; at most 50 nM in assay [2]; at most 50 nM in assay [3]; at most 50 nM in assay [4]; 50 to 500 nM in assay [5]; at most 50 nM in assay [6].

`CCS(=O)(=O)N(C)c1c(Nc2nc(Nc3cc(C)c(N4CCC(N5CCN(C)CC5)CC4)cc3OC)ncc2Br)ccc2nccnc12` [Compound I-99]: the IC50 in assay [1], in assay [2], in assay [3], in assay [4], in assay [5] and in assay [6] was at most 50 nM throughout.

Consider `CCc1cc(Nc2ncc(Br)c(Nc3ccc4nccnc4c3N(C)S(=O)(=O)CC)n2)c(OC)cc1N1CCC(N2CCN(C)CC2)CC1` [Compound I-100], for which the IC50 in assay [1], in assay [2], in assay [3], in assay [4], in assay [5] and in assay [6] was at most 50 nM each time.

`CCc1cc(Nc2ncc(Br)c(Nc3ccc4nccnc4c3N(C)S(=O)(=O)CC)n2)c(OC(F)(F)F)cc1N1CCC(N2CCN(C)CC2)CC1` [Compound I-101]: the IC50 was at most 50 nM in assay [1]; 50 to 500 nM in assay [2]; at most 50 nM in assay [3]; at most 50 nM in assay [4]; 50 to 500 nM in assay [5]; 50 to 500 nM in assay [6].

As to `CCc1cc(Nc2ncc(Br)c(Nc3ccc4nccnc4c3N(C)S(=O)(=O)CC)n2)c(OC)cc1N1CCC(N(C)C)CC1` [Compound I-102], the IC50 in assay [1], in assay [2], in assay [3], in assay [4], in assay [5] and in assay [6] was at most 50 nM each time.

Take `CCc1cc(Nc2ncc(Br)c(Nc3ccc4nccnc4c3N(C)S(=O)(=O)C3CC3)n2)c(OC)cc1N1CCC(N2CCN(C)CC2)CC1` [Compound I-105]: the IC50 in assay [1], in assay [2], in assay [3], in assay [4], in assay [5] and in assay [6] was at most 50 nM each time.

For `CCc1cc(Nc2ncc(Br)c(Nc3ccc4nccnc4c3N(C)S(=O)(=O)C3CC3)n2)c(OC(F)(F)F)cc1N1CCC(N2CCN(C)CC2)CC1` [Compound I-106], the IC50 in assay [1] is at most 50 nM; in assay [2], 50 to 500 nM; in assay [3], 50 to 500 nM; in assay [4], at most 50 nM; in assay [5], 50 to 500 nM; in assay [6] it was 50 to 500 nM.

For the molecule `CCc1cc(Nc2ncc(Br)c(Nc3ccc4nccnc4c3N(C)S(=O)(=O)C3CC3)n2)c(OC)cc1N1CCC(N(C)C)C1` (stereo not drawn) [Compound I-108], the IC50 in assay [1] was at most 50 nM; in assay [2] it was 50 to 500 nM; in assay [3], at most 50 nM; in assay [4] it was at most 50 nM; in assay [5], 50 to 500 nM; in assay [6], at most 50 nM.

On to `CCc1cc(Nc2ncc(Cl)c(Nc3ccc4nccnc4c3N(CC)S(C)(=O)=O)n2)c(OC)cc1N1CCC(N2CCN(C)CC2)CC1` [Compound I-110], for which the IC50 in assay [1], in assay [2], in assay [3], in assay [4], in assay [5] and in assay [6] was at most 50 nM each time.

In the case of `CCc1cc(Nc2ncc(Cl)c(Nc3ccc4nccnc4c3N(CC)S(C)(=O)=O)n2)c(OC(F)(F)F)cc1N1CCC(N2CCN(C)CC2)CC1` [Compound I-111], the IC50 in assay [1] is 50 to 500 nM; in assay [2], 50 to 500 nM; in assay [3], 50 to 500 nM; in assay [4], at most 50 nM; in assay [5], 50 to 500 nM; in assay [6] it was at most 50 nM.

Regarding `CCc1cc(Nc2ncc(Cl)c(Nc3ccc4nccnc4c3N(CC)S(C)(=O)=O)n2)c(OC)cc1N1CCC(N(C)C)CC1` [Compound I-112], the IC50 in assay [1], in assay [2], in assay [3], in assay [4], in assay [5] and in assay [6] was at most 50 nM in each case.

`CCc1cc(Nc2ncc(Cl)c(Nc3ccc4nccnc4c3N(CC)S(C)(=O)=O)n2)c(OC)cc1N1CCC(N(C)C)C1` (stereo not drawn) [Compound I-113]: the IC50 in assay [1] is at most 50 nM; in assay [2], at most 50 nM; in assay [3], at most 50 nM; in assay [4], at most 50 nM; in assay [5] it was 50 to 500 nM; in assay [6], at most 50 nM.
